Assay results: a melting point compilation (Tetko et al.; mined from patent text by program, amines drawn as free bases though some values may be those of a salt)

Compound `Cc1ccc(C(=O)NCC(N)=O)cc1-c1cccc2cc(Cc3cccc(C(F)(F)F)c3)sc12` has a melting point of 165 to 166 °C. For `COCCOCCn1cc(C(=O)NCc2ccc(Cl)cc2)c(=O)c2cc(CO)ccc21`, the melting point was 161 to 162 °C. For `CCOC(=O)CC[C@H](NC(=O)c1cc(CCCc2coc3nc(N)nc(N)c23)cs1)C(=O)OCC`, the melting point was 79 to 80 °C. With `CCN1C(=O)N(c2cc(Cl)cc(Cl)c2)C(=O)[C@]12CN(S(=O)(=O)c1cccc(C(=O)O)c1)C[C@H]2c1ccc(C#N)cc1` (relative stereo) the melting point was 145 °C. Work on `Cc1ccccc1CC(=NC#N)NC(NC(=O)Cc1ccc(F)c(F)c1)C(C)(C)C` (centres undefined) yielded a melting point of 178 to 179 °C. `O[C@@H]1C=C[C@H](COC(c2ccccc2)(c2ccccc2)c2ccccc2)C1` (relative stereo) gave a melting point of 94 to 96 °C. Work on `O=S(Cc1cn(C23CC4CC(CC(C4)C2)C3)nn1)c1cc(Cl)ccc1Cl` (centres undefined) yielded a melting point of 125 to 128 °C. In the case of `O=C(OCCn1c(-c2ccccc2)nc2cc(CN3CCN(C(c4ccccc4)c4ccccc4)CC3)ccc21)c1ccccc1`, the melting point is reported as 164 °C. Work on `C=C(C)COc1ccc(Cl)cc1CN(CC)c1ccc(C(=O)O)nn1` yielded a melting point of 130 to 131 °C. Work on `Cc1ccn(-c2ccc(C(=O)N3Cc4cccn4Cc4ccccc43)c(Cl)n2)n1` yielded a melting point of 171 to 172 °C. `CC(C)C(N)=C(C#N)C#N` gave a melting point of 163 to 164 °C. `N#CCc1cccc2c(-c3ccccc3)onc12` showed a melting point of 125 to 138 °C. `CSc1ccc2c(SCc3ccc(N(CCO)CCO)cc3)ccnc2c1` showed a melting point of 162 to 165 °C. `CC(C)(ON=C(C(=O)O)c1ccco1)C(N)=O` gave a melting point of 160 to 162 °C. With `C[C@@H](NCc1ccc(O)cc1)c1cccc2ccccc12` the melting point was 132 to 133 °C. With `Clc1ccnc(-n2ccnc2)n1` the melting point was 138 to 139 °C. Work on `COc1ccc(C2C(=O)c3ccc(OC)cc3C2=O)cc1` (centres undefined) yielded a melting point of 163 °C. `CC(C)(O)c1ccc(-c2cnc3[nH]c(=O)n(CCC4CCOCC4)c3n2)cn1` gave a melting point of 132 to 133 °C. With `Clc1nccc(Nc2cnc3ccccc3c2)n1` the melting point was 140 to 143 °C. With `CC(C)(C)OCCOc1cc(N)c([N+](=O)[O-])cc1I` the melting point was 144 to 146 °C. Compound `COC(=O)c1ccc(-c2nc3cc(Cl)c(Cl)cc3[nH]2)cc1` has a melting point of 240 to 250 °C. Compound `CC(C)CC1(C(CC(C)N2C(=O)c3ccccc3C2=O)C(=O)NO)CCN(CCc2ccccc2)C1=O` (centres undefined) has a melting point of 113 to 114 °C. `COC(=O)C1(C)CC(C(=O)Nc2ccc(Cl)cc2)=NN1c1ccc(Cl)cc1` (centres undefined) showed a melting point of 138 to 140 °C. For `CCOCc1nc2c(N)nc3ccccc3c2n1CCCC(C)N(OC)S(C)(=O)=O` (centres undefined), the melting point was 146 to 148 °C. Work on `N#Cc1cccc(C2OCCO2)n1` yielded a melting point of 64 °C. In the case of `Cc1nnc(-c2ccc3occ(-c4ccc(S(C)(=O)=O)cc4)c3n2)o1`, the melting point is reported as 250 to 251 °C. Compound `CN=C(NC#N)C1=CC(CF)(CF)Oc2ccc(C(F)(F)C(F)(F)F)cc21` has a melting point of 178 to 179 °C. For `CC(=O)SCCC(=O)N1CCN(C)CC1C(=O)O` (centres undefined), the melting point was 92 to 98 °C. `COc1nc2cc(Cl)c(Cl)c(-n3cnnc3-c3cccnc3)c2nc1OC` gave a melting point of 206 to 207 °C. For `CN1N=C(Br)C2N=C(Cl)N=C(O)C21` (centres undefined), the melting point was 260 to 262 °C. In the case of `Cc1ccc(C(=O)Nc2c(NC(=O)CN3CCN(c4ccccc4)CC3)ccc3c2C(=O)c2ccccc2C3=O)cc1`, the melting point is reported as 270 to 271 °C. `COC(=O)CCc1cccc(-c2ccccc2)c1` showed a melting point of 29 to 30 °C. For `CN(C)Cc1ccc2n1Cc1ccccc1N(C(=O)c1ccc(-c3ccccc3)cc1)C2`, the melting point was 85 to 87 °C. With `CC(=O)Nc1nc(N)nc(C2CCC(c3ccccc3)CC2)n1` (centres undefined) the melting point was > 260 °C. In the case of `Cc1cccc(-c2nc(C(C)C)[nH]c2-c2cccc(-c3ccc(S(N)(=O)=O)cc3)c2)n1`, the melting point is reported as 255 to 258 °C. `CCC1CN(C2C(=O)N(c3c(Cl)cc(Cl)cc3Cl)N=C2NC(=O)c2cccc(NC(=O)COc3ccc(C(C)(C)CC)cc3C(C)(C)CC)c2)CCC1C` (centres undefined) showed a melting point of 145 to 155 °C. Work on `CC1CC2C3CCC4=CC(=O)CCC4=C3C=CC2(C)C1O` (centres undefined) yielded a melting point of 149 to 151 °C. `C=CS(=O)(=O)N1CCC[C@H]1C(=O)OC(C)(C)C` showed a melting point of 84 to 87 °C. In the case of `CCOC(=O)CC(=O)Nc1ccc(Cl)c(Cl)c1`, the melting point is reported as 74 to 75 °C. `CCCCCCc1oc(C=Cc2ccccc2)nc1CO` gave a melting point of 44 to 45 °C. Compound `Cc1oc(-c2ccccc2)nc1CCC(O)c1ccc(CC2OC(=O)NC2=O)cc1` (centres undefined) has a melting point of 154 to 155 °C. With `COc1ccc(C2=NN(C3CCN(C(=O)CN4C(=O)CCC4=O)CC3)C(=O)C(C)(C)C2)c2c1OC(C)(C)C2` the melting point was 240 to 241 °C. Work on `COc1ccccc1-n1c(=O)[nH]c2c(C(N)=O)nc(-c3cccc4[nH]cnc34)nc21` yielded a melting point of 312 °C. `CS(=O)c1ccccc1C(=O)Nc1ccccc1` (centres undefined) showed a melting point of 194 to 195 °C. Compound `CCOC(=O)Nc1ccc(C2=NN(c3nnc(C)s3)[C@H](C)Cc3cc4c(cc32)OCO4)cc1C` has a melting point of 241 to 244 °C. With `COc1ccc(CN(C(=O)C2CCOc3c(O)cccc32)c2ccc(C(C)C)cc2)cn1` (centres undefined) the melting point was 141 °C. `CCCCC1(CC)COP(=O)(Cc2ccc(N)cc2)OC1` (centres undefined) gave a melting point of 90 to 91 °C. In the case of `CCC(C(=O)C(C)C(O)C(C)CCc1ccc(C)c(O)c1C(=O)O)C1OC(CC)(C2CCC(O)(CC)C(C)O2)CC1C` (centres undefined), the melting point is reported as 250 °C. For `CCOC(=O)c1ccc(-c2csc(-c3ccc(Cl)cc3)n2)cc1`, the melting point was 105 to 106 °C.
